In US20240400579A1, “SPIROCYCLIC MODULATORS OF CHOLESTEROL BIOSYNTHESIS AND THEIR USE FOR PROMOTING REMYELINATION” (GENENTECH, INC., priority 2021, published 2024) one finds EC50 and Ki data, which are given here for 21 compounds.

In general, EC50 refers to the concentration that produces a half-maximal response. One may read the Ki as the dissociation constant of the complex between target and ligand, obtained from inhibition or displacement.

The subject of test [1] is zymostenol accumulation in EpiSC-derived OPCs (EBP). Put plainly: GC/MS-based sterol profiling, zymostenol accumulation. It counts as cell-based, mouse. Conditions: Mus musculus, 24 h, 8 doses from 0.15 nM to 333 nM, read-out: mZymo GCMS EC50. A digest of the protocol:
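EpiSC-derived mouse OPCs plated at 100,000 cells/well in N2B27 without growth factors and treated 24 h. Sterols extracted, silylated with BSTFA and measured by GC/MS (EI, full scan), quantified against cholesterol-d7. Zymostenol normalized to levels after 24 h with 100 nM positive control reference.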

The target in another test is human EBP (Homo sapiens (Human), UniProt Q15125). Put plainly: Competition binding assay (SPA) to determine compound affinity to EBP. Conditions: radioligand [3H]-Ifenprodil 10 nM; Ki=IC50/(1+[L]/Kd); HEK293 membrane; read-out: hEBP SPA Ki. The protocol:
Membrane preparation: To examine compound binding affinity to EBP, human EBP was overexpressed in human embryonic kidney 293 cells. Cell pellet was lysed in 10 times weight binding buffer (50 mM Tris, 5 mM MgCl2, 0.1 mM EDTA, 1× protease inhibitor cocktail, pH 7.5) on ice by using a dounce homogenizer. The solution was centrifuged at 25,000 g for 50 min at 4° C. The membrane pellet was re-suspended in binding buffer and run through a 25 5/8 gauge needle. After checking the concentration by Bradford assay, the whole cell membrane solution was adjusted to 20 mg/mL and stored at −80° C.
This binding solution was centrifuged at 400 g for 5 minutes to collect the bead/membrane mixture. After re-suspending the pellet in binding buffer at the same calculated volume with 0.01% BSA (Sigma A1933), the bead/membrane mixture was added in 384-well low-binding surface plate (PerkinElmer Cat #6057480) at 25 i/well. Radioligand at different concentrations with and without the non-radio-labeled same ligand 5 uM (for nonspecific and total signal, respectively) was added to bring final volume to 50 i/well with DMSO concentration at 0.1%. At equilibrium (3 hours after ligand addition), radiometric signal CPM was counted by using a Microbeta2 microplate counter (Perkinelmer).
Competition binding assay to determine compound affinity: The same conditions of the radioligand Kd study were used for compound single dose percentage inhibition and equilibrium dissociation constant Ki examinations, except 50 nL compound DMSO stock was pre-added in 384-well low-binding surface plate (PerkinElmer Cat #6057480) by Echo 550 (Labcyte) to reach the final concentration for single dose test at 1 uM, and dose response test from 0.06 nM to 5 uM (8 dose, 5 times dilution). A pre-incubated bead/membrane mixture was added in compound plate at 0.3 mg beads and […] membrane per well. […] At equilibrium (3 hours after ligand addition), radiometric signal was counted as described above. The percentage inhibition of compound at each testing concentration was calculated by normalizing each condition's CPM readout to full block (5 uM non-radiolabeled ligand) and non-block (DMSO) control conditions. Compound binding inhibition IC50 was determined by nonlinear regression fitting of percentage inhibition plot against compound concentration. Compound Ki was calculated from the equation Ki=IC50/(1+[L]/Kd), which [L] was radioligand concentration used in assay. All tests had N bigger or equal to 2.

The target in test [2] is human emopamil binding protein and human 7-dehydrocholesterol reductase co-expressing cell membrane (Homo sapiens (Human), UniProt Q15125). Kind of test: hEBP-DHCR7 radioligand filtration binding assay with [3H]-Compound 118A*. Conditions: radioligand [3H]-Compound 118A*; HEK293 membrane co-expressing hEBP and DHCR7. A digest of the protocol:
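HEK293 membranes transiently co-expressing hEBP and hDHCR7 (10 μg/well) were incubated with [3H]-Compound 118A* (added at 25 nM) and compounds (8 doses, final 0.06–5000 nM, n=2) for 3 h at 22 °C. Bound radioactivity was read after PEI-treated GF/B filtration. IC50 came from a Hill fit of % inhibition and was converted to Ki.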

For the next test, the system named is EpiSC-derived OPCs. Put plainly: In vitro phenotypic screening of OPCs, MBP high-content imaging. It counts as cell-based, mouse. Conditions: Mus musculus, 72 h, percentage of MBP+ oligodendrocytes; 3 days; 0.5 nM to 1000 nM; read-out: mOPC EC50. Summed up:
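Mouse EpiSC-derived OPCs seeded without growth factors and exposed 3 days at 37° C. to 8-point doses, 1000 nM to 0.5 nM final. Fixed cells stained for MBP and DAPI; high-content imaging gave percentage MBP+ oligodendrocytes, with EC50 from Hill-equation fit.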

Sequence of human emopamil binding protein and human 7-dehydrocholesterol reductase co-expressing cell membrane (Q15125 whole entry): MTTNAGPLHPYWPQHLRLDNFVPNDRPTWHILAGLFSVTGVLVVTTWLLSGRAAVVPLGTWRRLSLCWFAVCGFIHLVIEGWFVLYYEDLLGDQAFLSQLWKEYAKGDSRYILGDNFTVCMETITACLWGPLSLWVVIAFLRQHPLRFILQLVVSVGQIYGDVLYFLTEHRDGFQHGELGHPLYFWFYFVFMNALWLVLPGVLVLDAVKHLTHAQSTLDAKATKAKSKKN
Sequence of human EBP (Q15125 whole entry): as above

For `O=S1(=O)CC2(CCN(CC(F)Cc3ccc(C(F)(F)F)cc3)C2)C1` (racemic) [Example 142, (S)-6-(2-Fluoro-3-(4-(trifluoromethyl)phenyl)propyl)-2-thia-6-azaspiro[3.4]octane 2,2-dioxide and (R)-6-(2-fluoro-3-(4-(trifluoromethyl)phenyl)propyl)-2-thia-6-azaspiro[3.4]octane 2,2-dioxide], the EC50 in test [1] amounted to 14 nM. In addition, the Ki on human EBP stood at 35 nM; in test [2], 16.1 nM.
In the same order, the values of `CC(Cc1cc(C(F)(F)F)nn1C(C)C)CN1CCC2(C1)CS(=O)(=O)C2` (racemic) [Example 155, (S)-6-(3-(1-Isopropyl-3-(trifluoromethyl)-1H-pyrazol-5-yl)-2-methylpropyl)-2-thia-6-azaspiro[3.4]octane 2,2-dioxide and (R)-6-(3-(1-isopropyl-3-(trifluoromethyl)-1H-pyrazol-5-yl)-2-methylpropyl)-2-thia-6-azaspiro[3.4]octane 2,2-dioxide] are 3 nM, 14 nM and 187 nM.
For `C[C@H](Cc1ccc(C(F)F)cc1)CN1CCC2(C1)CS(=O)(=O)C2` (single isomer, unassigned) [Compound 128B] the same measures were 4.8 nM, 45 nM and 25.7 nM.
Regarding `C[C@H](Cc1cnc(C(F)(F)F)nc1)CN1CCC2(C1)CS(=O)(=O)C2` (single isomer, unassigned) [Compound 145B], in test [1], the EC50 was found to be 55 nM. For the same compound, the Ki at human EBP turned out to be 100 nM; in test [2], 106 nM.
In the same order, the values of `C[C@@H](Cc1cnn(CC(F)(F)F)c1)CN1CCC2(C1)CS(=O)(=O)C2` (single isomer, unassigned) [Compound 154A] are 200 nM, 59 nM and 176 nM.
In the same order, the values of `C[C@H](Cc1cnn(CC(F)(F)F)c1)CN1CCC2(C1)CS(=O)(=O)C2` (single isomer, unassigned) [Compound 154B] are 250 nM, 53 nM and 143 nM.
Consider `O=S1(=O)CC2(CCN(CCOc3cnc([C@H]4CC[C@H](C(F)(F)F)CC4)c(F)c3)CC2)C1` [Compound 249, 7-(2-((5-Fluoro-6-((trans)-4-(trifluoromethyl)cyclohexyl)pyridin-3-yl)oxy)ethyl)-2-thia-7-azaspiro[3.5]nonane 2,2-dioxide], for which the EC50 amounted to 74.1 nM with EpiSC-derived OPCs and 25.6 nM in test [1]. For the same compound, the Ki in test [2] was determined as 31.6 nM.
For `CC(C)(CN1CCC2(C1)CS(=O)(=O)C2)Oc1cccc(F)c1` [Example 127, 6-(2-(3-Fluorophenoxy)-2-methylpropyl)-2-thia-6-azaspiro[3.4]octane-2,2-dioxide] the same measures were 15 nM, 13 nM and 21.3 nM.
For `CC(C)(CN1CCC2(C1)CS(=O)(=O)C2)Oc1ccc(F)cc1` [Example 132, 6-(2-(4-Fluorophenoxy)-2-methylpropyl)-2-thia-6-azaspiro[3.4]octane 2,2-dioxide], the EC50 in test [1] was determined as 7.2 nM. In addition, the values for the Ki (at human EBP; in test [2]) were 26 nM and 14.7 nM, respectively.
Consider `CC(C)(Cc1cncc(C(F)(F)F)c1)CN1CCC2(C1)CS(=O)(=O)C2` [Example 149, 6-(2,2-Dimethyl-3-(5-(trifluoromethyl)pyridin-3-yl)propyl)-2-thia-6-azaspiro[3.4]octane-2,2-dioxide], for which the 50% effective concentration (EC50) was 6.3 nM in the test on EpiSC-derived OPCs and 1.6 nM in test [1]. The same compound registered a Ki in test [2] of 24.6 nM.
For `CC(C)(Cc1ccc(C(F)(F)F)cn1)CN1CCC2(C1)CS(=O)(=O)C2` [Example 150, 6-(2,2-Dimethyl-3-(5-(trifluoromethyl)pyridin-2-yl)propyl)-2-thia-6-azaspiro[3.4]octane-2,2-dioxide] the same measures were 25 nM, 4.9 nM and 29.9 nM.
In the same order, the values of `CC(C)(Cc1ccc(C(F)(F)F)nc1)CN1CCC2(CC1)CS(=O)(=O)C2` [Example 152, 7-(2,2-Dimethyl-3-(6-(trifluoromethyl)pyridin-3-yl)propyl)-2-thia-7-azaspiro[3.5]nonane-2,2-dioxide] are 11 nM, 3.3 nM and 16 nM.
As for `CC(C)(Cc1ccc(C(F)(F)F)cc1)CN1CCC2(CC1)CS(=O)(=O)C2` [Example 153, 7-(2,2-Dimethyl-3-(4-(trifluoromethyl)phenyl)propyl)-2-thia-7-azaspiro[3.5]nonane-2,2-dioxide], the EC50 in the test on EpiSC-derived OPCs amounted to 1.6 nM; in test [1] it was 0.87 nM. For the same compound, the Ki in test [2] amounted to 7.23 nM.
For `O=S1(=O)CC2(CCN(CCOc3ccc(F)c(F)c3)CC2)C1` [Example 158, 7-(2-(3,4-Difluorophenoxy)ethyl)-2-thia-7-azaspiro[3.5]nonane 2,2-dioxide] the same measures were 2.9 nM, 2 nM and 10 nM.
In the same order, the values of `O=S1(=O)CC2(CCN(CC3(Oc4ccc(C(F)(F)F)cc4)CCCC3)CC2)C1` [Example 202, 7-((1-(4-(Trifluoromethyl)phenoxy)cyclopentyl)methyl)-2-thia-7-azaspiro[3.5]nonane 2,2-dioxide] are 220 nM, 42 nM and 14.7 nM.
As to `O=S1(=O)CC2(CCN(CCOc3ccc(F)cc3F)CC2)C1` [Example 204, 7-(2-(2,4-Difluorophenoxy)ethyl)-2-thia-7-azaspiro[3.5]nonane 2,2-dioxide], the EC50 in the test on EpiSC-derived OPCs came out at 6.8 nM; in test [1] it was 2.3 nM. Further, in test [2], the inhibition constant (Ki) came out at 28.9 nM.
For the compound `CC(C)(CN1CCC2(CC1)CS(=O)(=O)C2)Oc1ccc(C(F)(F)F)nc1` [Example 205, 7-(2-Methyl-2-((6-(trifluoromethyl)pyridin-3-yl)oxy)propyl)-2-thia-7-azaspiro[3.5]nonane 2,2-dioxide], the EC50 with EpiSC-derived OPCs amounted to 24 nM; in test [1], 5.6 nM. The Ki in test [2] stood at 19.4 nM.
For `O=S1(=O)CC2(CCN(CCOc3ccc(Cl)c(F)c3)CC2)C1` [Example 206, 7-(2-(4-Chloro-3-fluorophenoxy)ethyl)-2-thia-7-azaspiro[3.5]nonane 2,2-dioxide] the same measures were 3.2 nM, 1.5 nM and 13.2 nM.
In the same order, the values of `CC(C)(CN1CCC2(CC1)CS(=O)(=O)C2)Oc1ccc(C(F)(F)F)c(F)c1` [Example 208, 7-(2-(3-Fluoro-4-(trifluoromethyl)phenoxy)-2-methylpropyl)-2-thia-7-azaspiro[3.5]nonane 2,2-dioxide] are 1.52 nM, 0.69 nM and 12.8 nM.
For `CC(C)(CN1CC2(CCS(=O)(=O)CC2)C1)Oc1ccc(C(F)(F)F)cc1` [Example 209, 2-(2-Methyl-2-(4-(trifluoromethyl)phenoxy)propyl)-7-thia-2-azaspiro[3.5]nonane 7,7-dioxide] the same measures were 45 nM, 9.9 nM and 13.9 nM.
As to `O=S1(=O)CC2(CCN(CCOc3cncc(F)c3)CC2)C1` [Example 210, 7-(2-((5-Fluoropyridin-3-yl)oxy)ethyl)-2-thia-7-azaspiro[3.5]nonane 2,2-dioxide], the values for the EC50 (in the test on EpiSC-derived OPCs; in test [1]) were 282 nM and 52 nM, respectively. Moreover, the affinity in test [2], expressed as Ki, was 504 nM.
